Patent US10111874B2, “Combination therapies for treatment of cancer” (Araxes Pharma LLC, priority 2014, dated 2018)

Molecular target: T1, KRAS G12C 1-169, his-tagged protein, GDP-loaded (Homo sapiens, UniProt P01116, G12C)
T1 construct: KRAS G12C 1-169, his-tagged protein, GDP-loaded
Test: Biochemical assay: covalent binding to KRAS G12C analyzed by mass spectrometry; note: test concentration or dose not given here
Details: compounds 48-246, measured at 2 h

T1 sequence (P01116 1-169 isoform P01116-2 G12C): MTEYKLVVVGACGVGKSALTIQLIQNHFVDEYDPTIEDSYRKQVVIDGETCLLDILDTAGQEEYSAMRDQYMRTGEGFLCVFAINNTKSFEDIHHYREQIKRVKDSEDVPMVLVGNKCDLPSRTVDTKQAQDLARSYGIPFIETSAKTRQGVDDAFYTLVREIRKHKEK

SMILES | Binding %
C=CC(=O)N1CCN(c2ncnc3cc(-c4ccccc4F)c(C#N)cc23)CC1 [Compound I-137, 4-(4-acryloylpiperazin-1-yl)-7-(2-fluorophenyl)quinazoline-6-carbonitrile] | + (+indicates binding activity from 5% to 25%)
C=CC(=O)N1CCN(c2ncnc3cc(-c4c(O)cccc4F)c(Cl)cc23)CC1 [Compound I-138, 1-(4-(6-chloro-7-(2-fluoro-6-hydroxyphenyl)quinazolin-4-yl)piperazin-1-yl)prop-2-en-1-one] | ++++ (++++indicates binding activity greater than 75%)
C=CC(=O)N1CCN(c2ncnc3cc(-c4ccc(F)cc4F)c(Cl)cc23)CC1CC#N (stereo not shown) [Compound I-139, 2-(1-acryloyl-4-(6-chloro-7-(2,4-difluorophenyl)quinazolin-4-yl)piperazin-2-yl)acetonitrile] | ++++ (++++indicates binding activity greater than 75%)
C=CC(=O)N1CCN(c2ncnc3cc(-c4c(C)ccc5[nH]ncc45)c(Cl)cc23)CC1 [Compound I-140, 1-(4-(6-chloro-7-(5-methyl-1H-indazol-4-yl)quinazolin-4-yl)piperazin-1-yl)prop-2-en-1-one] | +++ (+++indicates binding activity greater than 50% and up to 75%)
C=CC(=O)N1CCN(c2ncnc3cc(-c4cc(OC(F)(F)F)ccc4F)c(Cl)cc23)CC1 [Compound I-141, 1-(4-(6-chloro-7-(2-fluoro-5-(trifluoromethoxy)phenyl)quinazolin-4-yl)piperazin-1-yl)prop-2-en-1-one] | + (+indicates binding activity from 5% to 25%)
C=CC(=O)N1CCN(c2ncnc3cc(-c4cccc(C(=O)NC5CC5)c4)c(Cl)cc23)CC1 [Compound I-142, 3-(4-(4-acryloylpiperazin-1-yl)-6-chloroquinazolin-7-yl)-N-cyclopropylbenzamide] | + (+indicates binding activity from 5% to 25%)
C=CC(=O)N1CCN(c2ncnc3cc(-c4cc(C5(C#N)CC5)ccc4F)c(Cl)cc23)CC1 [Compound I-143, 1-(3-(4-(4-acryloylpiperazin-1-yl)-6-chloroquinazolin-7-yl)-4-fluorophenyl)cyclopropanecarbonitrile] | +++ (+++indicates binding activity greater than 50% and up to 75%)
C=CC(=O)N1CCN(c2ncnc3cc(-c4ccc5[nH]ncc5c4)c(Cl)cc23)CC1 [Compound I-144, 1-(4-(6-chloro-7-(1H-indazol-5-yl)quinazolin-4-yl)piperazin-1-yl)prop-2-en-1-one] | + (+indicates binding activity from 5% to 25%)
C=CC(=O)N1CCN(c2ncnc3cc(-c4ccc(F)cc4F)c(Cl)cc23)CC1C#N (stereo not shown) [Compound I-145, 1-acryloyl-4-(6-chloro-7-(2,4-difluorophenyl)quinazolin-4-yl)piperazine-2-carbonitrile] | ++++ (++++indicates binding activity greater than 75%)
C=CC(=O)N1CCN(c2ncnc3cc(-c4ccccc4O)c(Cl)cc23)CC1C#N (stereo not shown) [Compound I-146, 1-acryloyl-4-(6-chloro-7-(2-hydroxyphenyl)quinazolin-4-yl)piperazine-2-carbonitrile] | ++++ (++++indicates binding activity greater than 75%)
C=CC(=O)N1CCN(c2ncnc3cc(-c4cc(C5CC5)ccc4F)c(Cl)cc23)CC1 [Compound I-147, 1-(4-(6-chloro-7-(5-cyclopropyl-2-fluorophenyl)quinazolin-4-yl)piperazin-1-yl)prop-2-en-1-one] | ++ (++indicates binding activity greater than 25% and up to 50%)
C=CC(=O)N1CCN(c2ncnc3cc(-c4cccc5c4CCCC5)c(Cl)cc23)CC1 [Compound I-148, 1-(4-(6-chloro-7-(5,6,7,8-tetrahydronaphthalen-1-yl)quinazolin-4-yl)piperazin-1-yl)prop-2-en-1-one] | +++ (+++indicates binding activity greater than 50% and up to 75%)
C=CC(=O)N1CCN(c2ncnc3cc(-c4cccc5onc(N)c45)c(Cl)cc23)CC1 [Compound I-149, 1-(4-(7-(3-aminobenzo[d]isoxazol-4-yl)-6-chloroquinazolin-4-yl)piperazin-1-yl)prop-2-en-1-one] | + (+indicates binding activity from 5% to 25%)
